Test results as given in ChEMBL document CHEMBL4507296 (2021).

What was measured:
[1] = target: Myotonin-protein kinase (Homo sapiens) (UniProt Q09013); details: Compound concentration 1000.0 nM
[2] = test system: Epidermal growth factor receptor (Homo sapiens), P00533 [T790M]; details: Compound concentration 1000.0 nM
[3] = target: Receptor-interacting serine/threonine-protein kinase 1 (Homo sapiens) (UniProt Q13546); details: Compound concentration 1000.0 nM
[4] = target: Serine/threonine-protein kinase TAO2 (Homo sapiens) (UniProt Q9UL54); details: Compound concentration 1000.0 nM
[5] = target: Receptor tyrosine-protein kinase erbB-4 (Homo sapiens) (UniProt Q15303); details: Compound concentration 1000.0 nM
[6] = target: Ephrin type-A receptor 6 (Homo sapiens) (UniProt Q9UF33); details: Compound concentration 1000.0 nM
[7] = target: SRSF protein kinase 3 (Homo sapiens) (UniProt Q9UPE1); details: Compound concentration 1000.0 nM
[8] = target: Fibroblast growth factor receptor 4 (Homo sapiens) (UniProt P22455); details: Compound concentration 1000.0 nM
[9] = target: Serine/threonine-protein kinase D3 (Homo sapiens) (UniProt O94806); details: Compound concentration 1000.0 nM
[10] = target: Serine/threonine-protein kinase MRCK beta (Homo sapiens) (UniProt Q9Y5S2); details: Compound concentration 1000.0 nM
[11] = target: Testis-specific serine/threonine-protein kinase 1 (Homo sapiens) (UniProt Q9BXA7); details: Compound concentration 1000.0 nM
Chain of Testis-specific serine/threonine-protein kinase 1 (Homo sapiens) (Q9BXA7 whole entry): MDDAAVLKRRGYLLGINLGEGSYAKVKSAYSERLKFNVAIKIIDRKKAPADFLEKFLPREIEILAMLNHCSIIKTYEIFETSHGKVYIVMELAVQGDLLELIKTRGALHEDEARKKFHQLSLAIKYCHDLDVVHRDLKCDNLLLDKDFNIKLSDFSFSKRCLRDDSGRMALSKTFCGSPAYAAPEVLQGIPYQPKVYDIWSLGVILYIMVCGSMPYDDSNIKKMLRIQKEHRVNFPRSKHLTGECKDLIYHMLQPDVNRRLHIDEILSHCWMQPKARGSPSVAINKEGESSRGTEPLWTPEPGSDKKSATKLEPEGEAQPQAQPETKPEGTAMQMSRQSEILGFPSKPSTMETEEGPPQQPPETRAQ

[12] = target: Protein kinase C epsilon type (Homo sapiens) (UniProt Q02156); details: Compound concentration 1000.0 nM
[13] = target: Ribosomal protein S6 kinase alpha-4 (Homo sapiens) (UniProt O75676); details: Compound concentration 1000.0 nM
Chain of Ribosomal protein S6 kinase alpha-4 (Homo sapiens) (O75676 whole entry, looked up, canonical isoform): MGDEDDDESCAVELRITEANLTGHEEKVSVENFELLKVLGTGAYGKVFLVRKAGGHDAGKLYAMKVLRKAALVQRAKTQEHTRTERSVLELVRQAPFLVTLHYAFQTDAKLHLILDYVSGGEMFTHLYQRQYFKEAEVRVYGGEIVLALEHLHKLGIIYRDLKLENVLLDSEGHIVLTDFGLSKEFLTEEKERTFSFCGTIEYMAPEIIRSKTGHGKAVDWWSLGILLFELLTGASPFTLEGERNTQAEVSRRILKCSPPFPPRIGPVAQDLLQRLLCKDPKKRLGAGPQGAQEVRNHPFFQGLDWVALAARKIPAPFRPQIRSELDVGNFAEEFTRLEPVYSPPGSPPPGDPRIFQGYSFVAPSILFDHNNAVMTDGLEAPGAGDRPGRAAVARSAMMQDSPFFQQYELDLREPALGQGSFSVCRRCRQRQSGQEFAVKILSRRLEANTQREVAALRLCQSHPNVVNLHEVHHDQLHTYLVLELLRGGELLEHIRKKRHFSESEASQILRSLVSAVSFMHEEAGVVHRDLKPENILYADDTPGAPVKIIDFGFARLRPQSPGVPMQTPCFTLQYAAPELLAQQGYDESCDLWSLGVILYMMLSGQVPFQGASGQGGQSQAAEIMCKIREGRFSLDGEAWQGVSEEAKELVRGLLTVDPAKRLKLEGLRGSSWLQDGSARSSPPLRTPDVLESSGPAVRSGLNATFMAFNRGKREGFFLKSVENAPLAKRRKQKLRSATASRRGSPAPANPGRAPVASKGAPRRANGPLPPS

[14] = target: Eukaryotic translation initiation factor 2-alpha kinase 1 (Homo sapiens) (UniProt Q9BQI3); details: Compound concentration 1000.0 nM
[15] = target: Death-associated protein kinase 2 (Homo sapiens) (UniProt Q9UIK4); details: Compound concentration 1000.0 nM
[16] = target: Rhodopsin kinase GRK1 (Homo sapiens) (UniProt Q15835); details: Compound concentration 1000.0 nM
[17] = target: Serine/threonine-protein kinase PLK1 (Homo sapiens) (UniProt P53350); details: Compound concentration 1000.0 nM
[18] = target: 5-hydroxytryptamine receptor 7 (Homo sapiens) (UniProt P34969); details: Compound concentration 10.0 uM
Chain of 5-hydroxytryptamine receptor 7 (Homo sapiens) (P34969 whole entry): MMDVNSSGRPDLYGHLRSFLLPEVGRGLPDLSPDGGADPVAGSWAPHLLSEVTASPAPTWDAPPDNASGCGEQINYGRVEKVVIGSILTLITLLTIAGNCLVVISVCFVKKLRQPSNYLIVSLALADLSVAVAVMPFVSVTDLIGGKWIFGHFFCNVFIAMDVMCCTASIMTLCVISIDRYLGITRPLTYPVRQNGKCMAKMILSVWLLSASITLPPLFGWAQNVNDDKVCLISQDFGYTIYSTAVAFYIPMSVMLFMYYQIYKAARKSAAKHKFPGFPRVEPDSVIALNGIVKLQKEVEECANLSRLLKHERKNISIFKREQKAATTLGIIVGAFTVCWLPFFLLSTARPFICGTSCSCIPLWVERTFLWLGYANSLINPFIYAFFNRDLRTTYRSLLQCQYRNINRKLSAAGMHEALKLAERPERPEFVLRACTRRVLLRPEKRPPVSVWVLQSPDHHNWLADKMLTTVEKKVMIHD

[19] = organism: Rattus norvegicus; details: Compound concentration 10.0 uM
[20] = target: Activin receptor type-1-like (Homo sapiens) (UniProt P37023); details: Compound concentration 1000.0 nM
[21] = target: Angiopoietin-1 receptor (Homo sapiens) (UniProt Q02763); details: Compound concentration 1000.0 nM
[22] = target: Casein kinase I isoform alpha (Homo sapiens) (UniProt P48729); details: Compound concentration 1000.0 nM
[23] = target: SNF-related serine/threonine-protein kinase (Homo sapiens) (UniProt Q9NRH2); details: Compound concentration 1000.0 nM
[24] = test system: Tyrosine-protein kinase ABL1 (Homo sapiens), P00519 [H396P]; details: Compound concentration 1000.0 nM
[25] = target: Mu-type opioid receptor (Homo sapiens) (UniProt P35372); experiment: m-Opioid (human) CEREP ligand profiling; details: Compound concentration 10.0 uM
[26] = target: Cyclin-dependent kinase 18 (Homo sapiens) (UniProt Q07002); details: Compound concentration 1000.0 nM
[27] = target: Serine/threonine-protein kinase SIK3 (Homo sapiens) (UniProt Q9Y2K2); details: Compound concentration 1000.0 nM
[28] = target: Casein kinase II subunit alpha' (Homo sapiens) (UniProt P19784); details: Compound concentration 1000.0 nM
[29] = test system: Epidermal growth factor receptor (Homo sapiens), P00533 [L861Q]; details: Compound concentration 1000.0 nM
[30] = target: Tyrosine-protein kinase ABL1 (Homo sapiens) (UniProt P00519); details: Compound concentration 1000.0 nM
[31] = target: Serine/threonine-protein kinase 33 (Homo sapiens) (UniProt Q9BYT3); details: Compound concentration 1000.0 nM
[32] = target: Platelet-derived growth factor receptor beta (Homo sapiens) (UniProt P09619); details: Compound concentration 1000.0 nM
[33] = target: Ribosomal protein S6 kinase alpha-4 (Homo sapiens) (UniProt O75676); details: Compound concentration 1000.0 nM; remark: listed apart in the source
[34] = test system: Phosphatidylinositol 4,5-bisphosphate 3-kinase catalytic subunit alpha isoform (Homo sapiens), P42336 [C420R]; details: Compound concentration 1000.0 nM
[35] = target: T1, Alpha-2B adrenergic receptor (Homo sapiens) (UniProt P18089); experiment: Adrenergic a2b (human) CEREP ligand profiling; details: Compound concentration 10.0 uM
T1 sequence (whole entry): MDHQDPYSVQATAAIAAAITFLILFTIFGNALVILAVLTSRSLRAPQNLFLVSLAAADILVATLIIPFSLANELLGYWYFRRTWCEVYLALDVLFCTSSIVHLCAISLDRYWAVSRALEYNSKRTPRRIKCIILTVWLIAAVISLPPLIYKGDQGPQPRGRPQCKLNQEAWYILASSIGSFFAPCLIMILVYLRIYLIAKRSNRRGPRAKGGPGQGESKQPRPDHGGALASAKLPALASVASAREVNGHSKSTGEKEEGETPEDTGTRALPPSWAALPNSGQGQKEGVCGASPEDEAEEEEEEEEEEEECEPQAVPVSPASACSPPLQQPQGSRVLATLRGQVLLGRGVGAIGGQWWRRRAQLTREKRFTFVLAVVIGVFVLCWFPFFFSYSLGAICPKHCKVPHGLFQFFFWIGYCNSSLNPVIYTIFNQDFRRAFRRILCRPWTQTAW

[36] = target: MAP kinase-interacting serine/threonine-protein kinase 2 (Homo sapiens) (UniProt Q9HBH9); details: Compound concentration 1000.0 nM
[37] = target: Serine/threonine-protein kinase 32C (Homo sapiens) (UniProt Q86UX6); details: Compound concentration 1000.0 nM
Chain of Serine/threonine-protein kinase 32C (Homo sapiens) (Q86UX6 whole entry): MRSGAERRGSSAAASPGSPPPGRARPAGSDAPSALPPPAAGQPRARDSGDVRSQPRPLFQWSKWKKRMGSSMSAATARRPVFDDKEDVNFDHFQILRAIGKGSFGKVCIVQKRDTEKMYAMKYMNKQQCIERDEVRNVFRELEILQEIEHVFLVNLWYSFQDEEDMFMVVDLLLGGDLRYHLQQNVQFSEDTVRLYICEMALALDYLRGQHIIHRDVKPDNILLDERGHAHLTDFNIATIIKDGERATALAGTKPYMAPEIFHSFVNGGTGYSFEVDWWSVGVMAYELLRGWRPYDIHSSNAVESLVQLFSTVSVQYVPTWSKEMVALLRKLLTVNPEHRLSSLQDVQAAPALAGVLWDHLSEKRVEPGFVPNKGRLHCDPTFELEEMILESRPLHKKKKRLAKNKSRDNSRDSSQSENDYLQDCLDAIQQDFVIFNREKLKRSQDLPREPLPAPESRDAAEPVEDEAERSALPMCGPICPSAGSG

[38] = target: Serine/threonine-protein kinase PLK4 (Homo sapiens) (UniProt O00444); details: Compound concentration 1000.0 nM
[39] = target: Proto-oncogene tyrosine-protein kinase ROS (Homo sapiens) (UniProt P08922); details: Compound concentration 1000.0 nM
Chain of Proto-oncogene tyrosine-protein kinase ROS (Homo sapiens) (P08922 whole entry): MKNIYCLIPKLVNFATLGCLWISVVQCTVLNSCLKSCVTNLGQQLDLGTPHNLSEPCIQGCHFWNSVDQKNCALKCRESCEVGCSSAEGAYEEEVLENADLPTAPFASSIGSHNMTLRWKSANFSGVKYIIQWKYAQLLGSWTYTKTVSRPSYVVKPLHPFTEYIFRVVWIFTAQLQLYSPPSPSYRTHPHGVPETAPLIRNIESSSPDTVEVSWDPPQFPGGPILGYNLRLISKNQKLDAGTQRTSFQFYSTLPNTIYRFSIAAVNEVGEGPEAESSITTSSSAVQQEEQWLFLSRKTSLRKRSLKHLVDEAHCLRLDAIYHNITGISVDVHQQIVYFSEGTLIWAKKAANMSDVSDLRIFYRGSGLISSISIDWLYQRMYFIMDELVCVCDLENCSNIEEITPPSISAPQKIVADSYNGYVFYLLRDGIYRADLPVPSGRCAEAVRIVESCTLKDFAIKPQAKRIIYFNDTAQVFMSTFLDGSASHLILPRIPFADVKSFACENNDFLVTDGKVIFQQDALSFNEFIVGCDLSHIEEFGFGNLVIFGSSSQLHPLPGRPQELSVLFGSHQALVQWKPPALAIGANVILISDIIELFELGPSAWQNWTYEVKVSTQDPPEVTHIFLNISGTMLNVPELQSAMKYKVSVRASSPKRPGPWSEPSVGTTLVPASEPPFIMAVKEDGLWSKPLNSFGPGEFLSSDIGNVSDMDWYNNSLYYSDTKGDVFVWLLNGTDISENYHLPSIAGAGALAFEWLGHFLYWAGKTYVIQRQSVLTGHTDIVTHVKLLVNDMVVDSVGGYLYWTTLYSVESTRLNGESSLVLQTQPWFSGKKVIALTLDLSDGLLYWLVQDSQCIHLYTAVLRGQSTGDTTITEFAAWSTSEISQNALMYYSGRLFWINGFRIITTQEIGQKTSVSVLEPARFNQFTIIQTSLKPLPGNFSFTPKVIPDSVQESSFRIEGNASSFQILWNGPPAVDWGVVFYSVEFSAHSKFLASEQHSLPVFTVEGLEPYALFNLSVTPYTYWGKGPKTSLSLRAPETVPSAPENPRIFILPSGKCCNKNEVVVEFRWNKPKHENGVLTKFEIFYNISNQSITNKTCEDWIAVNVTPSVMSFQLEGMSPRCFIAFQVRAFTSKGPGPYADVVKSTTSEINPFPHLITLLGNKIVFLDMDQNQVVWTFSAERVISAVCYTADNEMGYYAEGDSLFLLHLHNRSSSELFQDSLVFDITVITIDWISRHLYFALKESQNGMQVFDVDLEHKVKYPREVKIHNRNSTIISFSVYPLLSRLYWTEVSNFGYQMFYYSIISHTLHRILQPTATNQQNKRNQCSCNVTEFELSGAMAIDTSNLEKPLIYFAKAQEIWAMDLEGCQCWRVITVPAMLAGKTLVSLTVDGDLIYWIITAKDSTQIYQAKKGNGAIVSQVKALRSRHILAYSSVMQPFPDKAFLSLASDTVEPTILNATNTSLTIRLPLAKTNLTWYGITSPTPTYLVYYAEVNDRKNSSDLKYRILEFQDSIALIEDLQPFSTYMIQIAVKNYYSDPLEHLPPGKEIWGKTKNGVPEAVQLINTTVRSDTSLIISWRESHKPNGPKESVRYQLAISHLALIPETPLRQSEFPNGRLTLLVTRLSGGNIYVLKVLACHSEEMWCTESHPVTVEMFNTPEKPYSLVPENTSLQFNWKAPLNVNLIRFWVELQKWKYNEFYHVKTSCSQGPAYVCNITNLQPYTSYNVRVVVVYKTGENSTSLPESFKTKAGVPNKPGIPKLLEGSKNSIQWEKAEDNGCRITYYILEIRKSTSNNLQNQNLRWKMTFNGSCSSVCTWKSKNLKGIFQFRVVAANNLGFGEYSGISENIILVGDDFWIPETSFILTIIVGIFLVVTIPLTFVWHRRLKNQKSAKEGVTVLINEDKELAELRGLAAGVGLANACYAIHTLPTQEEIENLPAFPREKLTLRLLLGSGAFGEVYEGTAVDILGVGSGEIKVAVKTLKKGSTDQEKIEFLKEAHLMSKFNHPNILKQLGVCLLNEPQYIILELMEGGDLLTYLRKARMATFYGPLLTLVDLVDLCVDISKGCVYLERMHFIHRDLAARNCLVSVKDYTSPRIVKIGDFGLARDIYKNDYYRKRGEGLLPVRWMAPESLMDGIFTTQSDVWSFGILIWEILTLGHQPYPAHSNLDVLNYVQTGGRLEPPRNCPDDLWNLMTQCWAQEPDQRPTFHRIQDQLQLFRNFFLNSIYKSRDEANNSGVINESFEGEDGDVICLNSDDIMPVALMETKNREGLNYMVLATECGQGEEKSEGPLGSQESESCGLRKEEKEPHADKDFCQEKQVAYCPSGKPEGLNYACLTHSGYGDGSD

[40] = target: Megakaryocyte-associated tyrosine-protein kinase (Homo sapiens) (UniProt P42679); details: Compound concentration 1000.0 nM

Chain of Myotonin-protein kinase (Homo sapiens) (Q09013 whole entry): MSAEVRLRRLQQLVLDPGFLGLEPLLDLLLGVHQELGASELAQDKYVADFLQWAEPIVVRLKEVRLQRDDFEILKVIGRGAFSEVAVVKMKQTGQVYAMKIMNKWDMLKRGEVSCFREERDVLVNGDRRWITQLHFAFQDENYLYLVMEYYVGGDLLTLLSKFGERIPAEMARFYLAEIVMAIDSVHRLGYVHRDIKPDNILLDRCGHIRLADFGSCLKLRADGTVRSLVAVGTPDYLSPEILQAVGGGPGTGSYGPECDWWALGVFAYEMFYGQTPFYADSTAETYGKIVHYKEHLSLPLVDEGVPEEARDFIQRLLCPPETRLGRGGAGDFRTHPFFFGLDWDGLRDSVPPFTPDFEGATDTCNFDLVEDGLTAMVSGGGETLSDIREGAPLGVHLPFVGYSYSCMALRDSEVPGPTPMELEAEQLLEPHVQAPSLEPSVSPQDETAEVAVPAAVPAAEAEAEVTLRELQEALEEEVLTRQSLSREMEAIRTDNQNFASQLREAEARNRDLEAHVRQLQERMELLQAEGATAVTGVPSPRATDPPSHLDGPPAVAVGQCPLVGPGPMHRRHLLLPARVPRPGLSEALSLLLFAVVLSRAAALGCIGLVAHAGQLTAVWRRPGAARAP

How did the residual activity [1] turn out when `C[C@H](c1ccc(F)cc1)N(Cc1cccc(C(=O)O)c1)C(=O)c1cnc2ccccc2c1` [PF-05105679] was run?
Its residual activity is 88%.

What about the residual activity [2] of the same molecule?
The residual activity was 100%.

What about the residual activity [3] of the same molecule?
Its residual activity is 100%.

What about the residual activity [4] of the same molecule?
Its residual activity is 100%.

And the residual activity [5]?
Its residual activity is 94%.

And the residual activity [6]?
Its residual activity is 100%.

And the residual activity [7]?
The residual activity was 92%.

What about the residual activity [8] of the same molecule?
The residual activity was 91%.

And the residual activity [9]?
Its residual activity is 100%.

And the residual activity [10]?
Its residual activity is 94%.

And the residual activity [11]?
Its residual activity is 91%.

And the residual activity [12]?
The residual activity was 95%.

And the residual activity [13]?
Its residual activity is 100%.

What about the residual activity [14] of the same molecule?
Its residual activity is 84%.

And the residual activity [15]?
The residual activity was 88%.

And the residual activity [16]?
Its residual activity is 100%.

What about the residual activity [17] of the same molecule?
The residual activity was 79%.

What about the inhibition [18] of the same molecule?
The inhibition was -2.7%.

What about the inhibition [19] of the same molecule?
The inhibition was 70%.

What about the residual activity [20] of the same molecule?
The residual activity was 100%.

What about the residual activity [21] of the same molecule?
The residual activity was 98%.

And the residual activity [22]?
The residual activity was 100%.

What about the residual activity [23] of the same molecule?
Its residual activity is 96%.

And the residual activity [24]?
The residual activity was 73%.

And the inhibition [25]?
The inhibition was 25%.

And the residual activity [26]?
The residual activity was 100%.

And the residual activity [27]?
The residual activity was 80%.

What about the residual activity [28] of the same molecule?
Its residual activity is 86%.

And the residual activity [29]?
Its residual activity is 100%.

What about the residual activity [30] of the same molecule?
Its residual activity is 100%.

And the residual activity [31]?
The residual activity was 100%.

What about the residual activity [32] of the same molecule?
The residual activity was 100%.

What about the residual activity [33] of the same molecule?
Its residual activity is 85%.

What about the residual activity [34] of the same molecule?
Its residual activity is 100%.

And the inhibition [35]?
The inhibition was 21%.

And the residual activity [36]?
Its residual activity is 74%.

And the residual activity [37]?
Its residual activity is 100%.

And the residual activity [38]?
Its residual activity is 100%.

What about the residual activity [39] of the same molecule?
Its residual activity is 100%.

What about the residual activity [40] of the same molecule?
The residual activity was 79%.
